Laboratory results published in patent US7786128B2, “Indole or benzimidazole derivatives as CB1 inverse agonists” (Hoffmann-La Roche Inc., priority 2004, dated 2010).
Like-named read-outs stand apart in the source and are kept apart here. Blank lines part the entries; values can stand above or below the compound they belong to.

What was measured:
[1] = wild-type versus CB1 receptor knockout mice; cited from earlier work
[2] = doses of 5, 10 and 20 mg daily; cited from earlier work
[3] = target: T1, human cannabis CB1 receptor (Homo sapiens, UniProt P21554); assay: Affinity for cannabinoid CB1 receptors, [3H]-CP-55,940 radioligand binding on HEK cell membranes
T1 construct: expressed in transfected cells; host or cells: human embryonic kidney (HEK) cells, Semliki Forest Virus system
Experimental: The affinity of the compounds of the invention for cannabinoid CB1 receptors was determined using membrane preparations of human embryonic kidney (HEK) cells in which the human cannabis CB1 receptor is transiently transfected using the Semliki Forest Virus system in conjunction with [3H]-CP-55,940 as radioligand. After incubation of a freshly prepared cell membrane preparation with the [3H]-ligand, with or without addition of compounds of the invention, separation of bound and free ligand was performed by filtration over glassfiber filters. Radioactivity on the filter was measured by liquid scintillation counting.
The compounds of formula (I) show an excellent affinity for the CB1 receptor, determined with the experimental conditions described in Devane et. al. Mol. Pharmacol. 34 (1988) 605-613.

[4] = affinity for the CB1 receptor, HEK membranes, [3H]-CP-55,940, read-out: IC50

T1 sequence (P21554 whole entry): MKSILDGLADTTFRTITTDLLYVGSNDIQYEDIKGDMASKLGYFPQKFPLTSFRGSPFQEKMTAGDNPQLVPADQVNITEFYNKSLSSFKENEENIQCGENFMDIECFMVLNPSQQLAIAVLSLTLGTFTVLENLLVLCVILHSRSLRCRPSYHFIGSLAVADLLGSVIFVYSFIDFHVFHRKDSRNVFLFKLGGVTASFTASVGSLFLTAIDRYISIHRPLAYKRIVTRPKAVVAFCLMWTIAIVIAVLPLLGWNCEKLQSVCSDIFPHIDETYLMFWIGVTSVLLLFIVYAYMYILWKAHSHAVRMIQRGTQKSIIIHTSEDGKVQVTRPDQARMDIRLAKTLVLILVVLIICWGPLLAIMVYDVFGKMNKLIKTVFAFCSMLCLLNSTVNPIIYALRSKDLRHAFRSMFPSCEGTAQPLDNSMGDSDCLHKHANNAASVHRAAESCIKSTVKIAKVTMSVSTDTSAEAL

SMILES: Cc1c(C(=O)NN2CCCCC2)nn(-c2ccc(Cl)cc2Cl)c1-c1ccc(Cl)cc1 [SR 141716]
food intake [1]: reduces food intake in wild-type but not knockout mice
body weight compared to placebo [2]: significantly reduced body weight

IC50 [3, 4]: 30 nM
SMILES: CCCCNC(=O)c1ccc2c(c1)nc(COc1ccccc1)n2Cc1ccc(OC(F)(F)F)cc1 [Example 61, 2-Phenoxymethyl-1-(4-trifluoromethoxy-benzyl)-1H-benzoimidazole-5-carboxylic acid butyl-amide]

IC50 [3, 4]: 20 nM
SMILES: CCCCNC(=O)c1ccc2c(c1)cc(COc1ccccc1)n2Cc1ccc(OC(F)(F)F)cc1 [Example 101, 2-phenoxymethyl-1-(4-trifluoromethoxy-benzyl)-1H-indole-5-carboxylic acid butylamide]

SMILES: CC(Oc1ccccc1)c1nc2ccc(N3CCN(S(=O)(=O)N(C)C)CC3)cc2n1Cc1ccc(Cl)cc1 (centres unmarked) [Example 51, 4-[3-(4-chloro-benzyl)-2-(1-phenoxy-ethyl)-3H-benzoimidazol-5-yl]-piperazine-1-sulfonic acid dimethylamide]
IC50 [3]: 60 nM
